Earlier results as cited in US6191117A, “Methods of producing weight loss and treatment of obesity” (priority 2000, dated 2001).
Entries after “also recorded” stand apart in the source; their conditions may differ. Where two headings read alike, the source gives them in different places.

Assays:
epileptic patients [1] = details: human, in vivo
[2] = test system: patients treated for epilepsy
epileptic patients [3] = test system: epileptic patients
carbonic anhydrase CA-II = details: compared with acetozolamide
cerebral GABA = details: within three hours of oral administration
carbonic anhydrase CA-IV = details: compared with acetozolamide
young healthy adults = details: acute doses and 2- and 4-week test periods
seizure patients = details: for patients with weight decrease: adjunctive therapy, control 3%
[4] = another study, epileptic patients
[5] = clinical trials on seizure patients

Structure (SMILES): NC(=O)OCC(COC(N)=O)c1ccccc1 [FBM]
- activity at the kainate/AMPA receptor (kainate/AMPA receptor): interaction at the kainate/AMPA receptor
- cognition and fine motor function (epileptic patients [1]): increase both cognition and fine motor function
- weight loss ([2]; FBM monotherapy, non-obese patients): 5%
- course of weight loss ([2]; add-on therapy, partial epilepsy, non-obese patients): transient and returned to baseline after twenty weeks
- anorexia and weight loss ([2]; patients treated for epilepsy): induce anorexia and weight loss
- interaction at L-type calcium channels (L-type calcium channels): an interaction at the L-type calcium channels
- activity at the NMDA receptor (NMDA receptor): glycine site NMDA antagonist
- action on sodium channel (sodium channel): modulation of the Na++ channel conductance
- action on GABA (GABA receptor): facilitation of the GABA receptor
- aplastic anemia and hepatic failure, 1994 reports (epileptic patients [3]; 1994 reports): causing aplastic anemia and hepatic failure
- thrombocytopenia and neutropenia (epileptic patients [3]; add-on therapy, Lennox-Gestalt Syndrome, prior to FDA approval): Several mild cases of thrombocytopenia and neutropenia
- aplastic anemia or hepatic dysfunction after FDA warning (epileptic patients [3]; adjunctive FBM, refractory epilepsy, serum levels monitored): No cases of aplastic anemia or hepatic dysfunction
- safety of long usage (epileptic patients [3]; adjunctive therapy, at least one year): relatively safe after usage for at least one year
- aplastic anemia or hepatic dysfunction prior to approval (epileptic patients [3]; prior to drug approval): no reported cases of aplastic anemia or hepatic dysfunction
- aplastic anemia attributable to FBM monotherapy (epileptic patients [3]; recent analysis): only several cases of aplastic anemia
- drug interactions (epileptic patients [3]; with other antiepileptic drugs): elevation of dilantin, depakote, phenobarbitol levels and the toxic epoxide metabolite of tegretol

Structure (SMILES): CC1(C)O[C@@H]2[C@@H](CO[C@@]3(COS(N)(=O)=O)OC(C)(C)O[C@@H]23)O1 [TPM, 2,3:4,5-DI-O-isolpropylidene-B-D-fructopyranose sulfamate]
- time to peak (TTP) plasma concentrations (400 mg dose): about 2 hours
- dose recovered in urine (100-mg dose): 81-95%
- linearity of pharmacokinetics (200 to 800 mg/day): linear with dose proportional increases in plasma concentration
- route of elimination (TPM and its metabolites): predominantly renal
- increase of plasma concentrations (hepatic impairment): 29%
- clearance in hepatically impaired subjects (hepatically impaired subjects): may be decreased
- extent of metabolism (in vivo): not extensively metabolized
- metabolites identified in humans (in vivo): Six metabolites
- renal tubular reabsorption (in vivo): evidence of renal tubular reabsorption
- routes of metabolite formation (in vivo): hydroxylation, hydrolysis, and glucuronidation
- plasma levels in moderate or severe renal impairment (moderate or severe renal impairment): plasma levels are increased
- reduction of clearance (moderate renal impairment (creatinine clearance 30-69 mL/min/1.73 m^2) vs normal): 42%
- eliminated unchanged in the urine (of an administered dose): approximately 70%
- absorption (oral): rapid; also recorded: nearly complete
- elimination half-life (patients with normal renal function): 20 to 30 h
- dose excreted as unchanged TPM (predominantly renal elimination): 50-80%
- reduction of clearance (severe renal impairment (creatinine clearance <30 mL/min/1.73 m^2) vs normal): 54%
- mean plasma concentration half-life (single or multiple doses): 21 h
- relative bioavailability, effect of food (tablet): not affected by food
- dose dependence of common adverse events (patients with seizures; 200 to 400 mg/day): did not appear to be dose-related
- discontinuation due to adverse events (patients with seizures; 200 to 400 mg/day adjunctive therapy): 11%
- common adverse events, controlled trials (patients with seizures; 200 to 400 mg/day, adults): somnolence, dizziness, ataxia, speech disorders and related speech problems, psychomotor slowing, abnormal vision, difficulty with memory, paresthesia and diplopia
- most common dose-related adverse events (patients with seizures; 200 to 1,000 mg/day): fatigue, nervousness, difficulty with concentration or attention, confusion, depression, anorexia, language problems, anxiety, mood problems, and weight decrease
- course of adverse events (patients with seizures; 200 to 1,000 mg/day, rapid dose titration of 200 mg/day): abated after 4 months of treatment
- renal calculi incidence relative to similar untreated population (patients with seizures; about, expected in a similar, untreated population): 2-4 times
- nonspecific CNS effects occasionally observed (patients with seizures; add-on therapy): dizziness or imbalance, confusion, memory problems, and exacerbation of mood disturbances (i.e., irritability and depression)
- renal calculi (kidney stones) incidence (patients with seizures; adults): 1.5%
- severity of somnolence and fatigue (patients with seizures; clinical trials, early in therapy): generally mild to moderate
- dose dependence of fatigue incidence (patients with seizures; dosages above 400 mg/day): increases at dosages above 400 mg/day
- central nervous system adverse events (patients with seizures; human, in vivo): psychomotor slowing, difficulty with concentration, and speech or language problems, in particular, word-finding difficulty and somnolence and/or fatigue
- correlation of plasma concentrations with adverse events (patients with seizures; human, in vivo): not correlated with the occurrence of adverse events
- dose dependence of somnolence incidence (patients with seizures; human, in vivo): does not appear to be dose-related
- adverse events associated with discontinuing therapy (patients with seizures; increased at dosages above 400 mg/day): somnolence, dizziness, anxiety, difficulty with concentration or attention, fatigue, and paresthesia
- post-marketing adverse experiences (patients with seizures; post-marketing data): hepatic failure, hepatitis, pancreatitis, and renal tubular acidosis
- inhibition of CA-II (carbonic anhydrase CA-II): weaker than that of acetozolamide
- activity at the kainate/AMPA receptor (kainate/AMPA receptor): antagonizing the kainate/AMPA
- brain levels of cerebral GABA (cerebral GABA): acutely increase brain levels of cerebral GABA
- inhibition of CA-IV (carbonic anhydrase CA-IV): weaker than that of acetozolamide
- activity at the NMDA receptor (NMDA receptor): no effect on the activity of N-methyl-D-aspartate (NMDA)
- action on sodium channel (sodium channel): voltage-sensitive sodium channel blocking action
- carbonic anhydrase inhibition (carbonic anhydrase): weak carbonic anhydrase inhibitor
- effect on urinary citrate excretion and urinary pH (carbonic anhydrase): reducing urinary citrate excretion and by increasing urinary pH
- action on GABA (GABA receptor): potentiation of the effects of GABA
- bound to human plasma proteins (human plasma proteins; 1-250 μg/ml): 13-17%
- plasma protein binding (human plasma proteins; concentration not given): approximately 15%
- attention and word fluency (young healthy adults): statistically significant declines on measures of attention and word fluency
- patients with weight decrease (seizure patients; 200-400 mg/day): 9%
- patients with weight decrease (seizure patients; 600-1,000 mg/day): 13%
- weight loss with valproate or valproate plus carbamazepine co-treatment (seizure patients; also treated with valproate, or valproate with carbamazepine): tended to be higher
- amount of weight increase (seizure patients; another study, 2/12 patients): 12-25 pounds
- amount of weight loss (seizure patients; another study, 5/12 patients): 12-42 pounds
- patients with weight increase (seizure patients; [4]): 2/12
- patients with weight loss (seizure patients; [4]): 5/12
- average decline from baseline weight (seizure patients; [5]): 2-8%
- average weight loss (seizure patients; [5]): 2 to 8 kg
- report of anorexia in patients with weight loss (seizure patients; human, in vivo): more likely to report anorexia or loss of appetite
- time to peak of weight loss (seizure patients; human, in vivo): 12-15 months
- body weight after prolonged therapy (seizure patients; prolonged therapy): gradually returning toward pre-topiramate levels
- patients with weight loss, long-term study (seizure patients; treated for up to 2.2 years): 26%
